Reference: PubChem BioAssay (NCI)
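Protocol summary: plate cells (96-well), add compound at 5 concentrations, incubate 48 h, interpolate endpoints linearly. GI50: concentration for 50% inhibition of growth. Definition used: TGI = concentration required for complete inhibition of growth.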

What was measured:
Test in all cases: NCI-60 cell line screen, 48 h
HL-60(TB) leukemia = test system: HL-60(TB) leukemia
NCI-H23 lung = test system: NCI-H23 lung
OVCAR-3 ovarian = test system: OVCAR-3 ovarian
HCT-15 colon = test system: HCT-15 colon
LOX IMVI melanoma = test system: LOX IMVI melanoma
KM12 colon = test system: KM12 colon
SF-268 CNS = test system: SF-268 CNS
TK-10 renal = test system: TK-10 renal
SN12C renal = test system: SN12C renal
PC-3 prostate = test system: PC-3 prostate
DU-145 prostate = test system: DU-145 prostate
NCI-H522 lung = test system: NCI-H522 lung
UACC-62 melanoma = test system: UACC-62 melanoma
SK-MEL-28 melanoma = test system: SK-MEL-28 melanoma
MOLT-4 leukemia = test system: MOLT-4 leukemia
UACC-257 melanoma = test system: UACC-257 melanoma
COLO 205 colon = test system: COLO 205 colon
RXF 393 renal = test system: RXF 393 renal
NCI-H226 lung = test system: NCI-H226 lung
U251 CNS = test system: U251 CNS
SK-OV-3 ovarian = test system: SK-OV-3 ovarian
MCF7 breast = test system: MCF7 breast
A549 NSCLC = test system: A549 NSCLC
SK-MEL-2 melanoma = test system: SK-MEL-2 melanoma
HCC-2998 colon = test system: HCC-2998 colon
SNB-19 CNS = test system: SNB-19 CNS
RPMI-8226 leukemia = test system: RPMI-8226 leukemia
MALME-3M melanoma = test system: MALME-3M melanoma
HT29 colon = test system: HT29 colon
M14 melanoma = test system: M14 melanoma
K-562 leukemia = test system: K-562 leukemia
OVCAR-5 ovarian = test system: OVCAR-5 ovarian
T-47D breast = test system: T-47D breast
NCI/ADR-RES ovarian = test system: NCI/ADR-RES ovarian
OVCAR-4 ovarian = test system: OVCAR-4 ovarian
SNB-75 CNS = test system: SNB-75 CNS
HCT-116 colon = test system: HCT-116 colon
OVCAR-8 ovarian = test system: OVCAR-8 ovarian
SF-295 CNS = test system: SF-295 CNS
HOP-92 NSCLC = test system: HOP-92 NSCLC
MDA-MB-231 breast = test system: MDA-MB-231 breast
UO-31 renal = test system: UO-31 renal
786-0 renal = test system: 786-0 renal
A498 renal = test system: A498 renal
NCI-H460 lung = test system: NCI-H460 lung
MDA-MB-435 = test system: MDA-MB-435
CAKI-1 renal = test system: CAKI-1 renal
IGROV1 ovarian = test system: IGROV1 ovarian
HS 578T breast = test system: HS 578T breast
SR leukemia = test system: SR leukemia
ACHN renal = test system: ACHN renal
SW-620 colon = test system: SW-620 colon
CCRF-CEM leukemia = test system: CCRF-CEM leukemia
SK-MEL-5 melanoma = test system: SK-MEL-5 melanoma

**Q.** What does the source list for COc1cc(C(=O)N2CCN(c3ncccn3)CC2)c(N)cc1OCc1ccccc1?
**A.** GI50 (HL-60(TB) leukemia): > 100 µM; TGI (HL-60(TB) leukemia): > 100 µM; GI50 (NCI-H23 lung): > 100 µM; TGI (NCI-H23 lung): > 100 µM; GI50 (OVCAR-3 ovarian): 85.6 µM; TGI (OVCAR-3 ovarian): > 100 µM; GI50 (HCT-15 colon): > 100 µM; TGI (HCT-15 colon): > 100 µM; GI50 (LOX IMVI melanoma): > 100 µM; TGI (LOX IMVI melanoma): > 100 µM; GI50 (KM12 colon): > 100 µM; TGI (KM12 colon): > 100 µM; GI50 (SF-268 CNS): > 100 µM; TGI (SF-268 CNS): > 100 µM; GI50 (TK-10 renal): > 100 µM; TGI (TK-10 renal): > 100 µM; GI50 (SN12C renal): 63.9 µM; TGI (SN12C renal): > 100 µM; GI50 (PC-3 prostate): > 100 µM; TGI (PC-3 prostate): > 100 µM; GI50 (DU-145 prostate): 37.2 µM; TGI (DU-145 prostate): > 100 µM; GI50 (NCI-H522 lung): > 100 µM; TGI (NCI-H522 lung): > 100 µM; GI50 (UACC-62 melanoma): > 100 µM; TGI (UACC-62 melanoma): > 100 µM; GI50 (SK-MEL-28 melanoma): > 100 µM; TGI (SK-MEL-28 melanoma): > 100 µM; GI50 (MOLT-4 leukemia): 81.6 µM; TGI (MOLT-4 leukemia): > 100 µM; GI50 (UACC-257 melanoma): > 100 µM; TGI (UACC-257 melanoma): > 100 µM; GI50 (COLO 205 colon): > 100 µM; TGI (COLO 205 colon): > 100 µM; GI50 (RXF 393 renal): > 100 µM; TGI (RXF 393 renal): > 100 µM; GI50 (NCI-H226 lung): > 100 µM; TGI (NCI-H226 lung): > 100 µM; GI50 (U251 CNS): > 100 µM; TGI (U251 CNS): > 100 µM; GI50 (SK-OV-3 ovarian): > 100 µM; TGI (SK-OV-3 ovarian): > 100 µM; GI50 (MCF7 breast): > 100 µM; TGI (MCF7 breast): > 100 µM; GI50 (A549 NSCLC): > 100 µM; TGI (A549 NSCLC): > 100 µM; GI50 (SK-MEL-2 melanoma): > 100 µM; TGI (SK-MEL-2 melanoma): > 100 µM; GI50 (HCC-2998 colon): > 100 µM; TGI (HCC-2998 colon): > 100 µM; GI50 (SNB-19 CNS): > 100 µM; TGI (SNB-19 CNS): > 100 µM; GI50 (RPMI-8226 leukemia): > 100 µM; TGI (RPMI-8226 leukemia): > 100 µM; GI50 (MALME-3M melanoma): > 100 µM; TGI (MALME-3M melanoma): > 100 µM; GI50 (HT29 colon): > 100 µM; TGI (HT29 colon): > 100 µM; GI50 (M14 melanoma): > 100 µM; TGI (M14 melanoma): > 100 µM; GI50 (K-562 leukemia): > 100 µM; TGI (K-562 leukemia): > 100 µM; GI50 (OVCAR-5 ovarian): 29.6 µM; TGI (OVCAR-5 ovarian): > 100 µM; GI50 (T-47D breast): > 100 µM; TGI (T-47D breast): > 100 µM; GI50 (NCI/ADR-RES ovarian): > 100 µM; TGI (NCI/ADR-RES ovarian): > 100 µM; GI50 (OVCAR-4 ovarian): > 100 µM; TGI (OVCAR-4 ovarian): > 100 µM; GI50 (SNB-75 CNS): 50.7 µM; TGI (SNB-75 CNS): > 100 µM; GI50 (HCT-116 colon): > 100 µM; TGI (HCT-116 colon): > 100 µM; GI50 (OVCAR-8 ovarian): > 100 µM; TGI (OVCAR-8 ovarian): > 100 µM; GI50 (SF-295 CNS): > 100 µM; TGI (SF-295 CNS): > 100 µM; GI50 (HOP-92 NSCLC): > 100 µM; TGI (HOP-92 NSCLC): > 100 µM; GI50 (MDA-MB-231 breast): > 100 µM; TGI (MDA-MB-231 breast): > 100 µM; GI50 (UO-31 renal): > 100 µM; TGI (UO-31 renal): > 100 µM; GI50 (786-0 renal): > 100 µM; TGI (786-0 renal): > 100 µM; GI50 (A498 renal): 54.2 µM; TGI (A498 renal): > 100 µM; GI50 (NCI-H460 lung): > 100 µM; TGI (NCI-H460 lung): > 100 µM; GI50 (MDA-MB-435): > 100 µM; TGI (MDA-MB-435): > 100 µM; GI50 (CAKI-1 renal): 11.9 µM; TGI (CAKI-1 renal): > 100 µM; GI50 (IGROV1 ovarian): > 100 µM; TGI (IGROV1 ovarian): > 100 µM; GI50 (HS 578T breast): > 100 µM; TGI (HS 578T breast): > 100 µM; GI50 (SR leukemia): > 100 µM; TGI (SR leukemia): > 100 µM; GI50 (ACHN renal): > 100 µM; TGI (ACHN renal): > 100 µM; GI50 (SW-620 colon): > 100 µM; TGI (SW-620 colon): > 100 µM; GI50 (CCRF-CEM leukemia): > 100 µM; TGI (CCRF-CEM leukemia): > 100 µM; GI50 (SK-MEL-5 melanoma): 44.5 µM; TGI (SK-MEL-5 melanoma): > 100 µM
